In patent publication US20040235922A1, “Compositions and methods for inducing adipose tissue cell death” (priority 2003, published 2004):
“Also recorded” adds a separate entry of the source. Marks after values point to notes of the source that are not given here.

What was measured:
brain and liver = conditions: in vivo; cited from earlier work
male and female ICR mice = assay: 21 day oral (diet) treatment of mice: selected tissue weights, fat pads, BAT, muscle, organs (Example 1); type: in vivo; conditions: 21 days; for Brown adipose tissue (BAT) mass compared to control/other treatments: 200 ppm clenbuterol in diet; for Brown adipose tissue (BAT) mass compared to control/other treatments / Rp and Epi/Par fat pad weights compared to control: p<0.05; for Rp and Epi/Par fat pad weights compared to control: 200 ppm clenbuterol, 800 ppm ractopamine in diet
Protocol: The effects of clenbuterol, a β2-AR agonist, and ractopamine, a β1/β2-AR agonist, on growth, adiposity and adipose tissue apoptosis in male and female mice have been tested by feeding diets containing control, 200 ppm clenbuterol, or 200 or 800 ppm ractopamine. Food intake (FI) was measured daily; body weight (BW) and temperatures (BT) were measured on days 0, 3, 7, 10, 14, 17, and 20. On day 21 mice were sacrificed, body composition was determined using PIXImus densitometry, and muscle and adipose tissues were collected. There were no treatment effects on BT, FI, BW, feed efficiency or body composition. Retroperitoneal (Rp) and epididymal/parametrial (Epi/Par) fat pad masses were reduced in both 800 ppm ractopamine (40±3 and 207±20 mg, respectively) and clenbuterol (35±7 and 211±22 mg) treated mice compared to control (66±8 and 319±30 mg, p<0.05). Brown adipose tissue (BAT) mass was greater (p<0.05) in clenbuterol treated mice compared to other treatments. Adipose tissue apoptosis (% DNA fragmentation) was increased in Epi/Par fat pads in clenbuterol (5.2+1.1%) and 800 ppm ractopamine (4.1±0.8%) treated mice compared to control (1.7+0.4%, p<0.05).
Animals: Five week old male (n=20) and female (n=20) ICR mice (Harlan Research Laboratories, Indianapolis, Ind.) were allowed to acclimate for one week prior to the experiment start date. Animals were housed singly in suspended wire cages and were provided ground rodent chow (ProLab® RMH 2500; Purina Mills, St. Louis, Mo.) and water ad libitum. Ambient room temperature was maintained and the light/dark cycle was 0600/1800 hours, respectively. Animals were cared for in accordance with the Guide for the Care and Use of Laboratory Animals (Institute of Laboratory Animal Resources Commission on Life Sciences National Research Council. Guide for the Care and Use of Laboratory Animals. National Academy of Sciences, 1996). Prior to the start of the study, animals were briefly anesthetized with isofluorane and an IPPT-200 transponder (programmable ID and temperature, BMDS, Seaford, Del.) was implanted subcutaneously between the scapulae.
Materials: Test articles included clenbuterol (Sigma Chemical Company, St. Louis, Mo., item # C5423) and ractopamine hydrochloride—Paylean® 9 (Elanco Animal Health, Indianapolis, Ind.). Clenbuterol is available as a pure product, and ractopamine is readily available as a type A medicated article. Paylean® 9 contains about 20 g ractopamine hydrochloride per kilogram in a ground corncob base. In order to achieve doses of 200 and 800 ppm it was necessary to add about […] of product per kilogram of diet. Control and clenbuterol diets were prepared with about 80 g of alphacel, which is a diluent used to mimic the effect of the corncob in the ractopamine product. The dose of clenbuterol used in this experiment was similar to those used in previous experiments with mice (Agbenyega E T, and Wareham A C. Effect of clenbuterol on skeletal muscle atrophy in mice induced by the glucocorticoid dexamethasone. Comp Biochem Physiol Comp Physiol 1992;102:141-145, Rothwell N. J., and Stock M J. Modification of body composition by clenbuterol in normal and dystrophic (mdx) mice. Biosci Rep 1985;5:755-760, Hyltander A, Svaninger G, and Lundholm K. The effect of clenbuterol on body composition in spontaneously eating tumour-bearing mice. Biosci Rep 1993;13:325-331, Hayes A, and Williams DA. Long-term clenbuterol administration alters the isometric contractile properties of skeletal muscle from normal and dystrophin-deficient mdx mice. Clin Exp Pharmacol Physiol 1994;21:757-765, Dupont-Versteegden EE. Exercise and clenbuterol as strategies to decrease the progression of muscular dystrophy in mdx mice. J Appl Physiol 1996;80:734-741). […]

[1] = Clenbuterol feeding for 21 days in WT and GDF-8 KO mice: body weight, weight gain, food intake, feed efficiency (Example 2); type: in vivo; conditions: 200 ppm in diet
Protocol: The effects of clenbuterol on muscularity and adiposity in male and female GDF-8 knockout (GDF-8 KO) (n=20) and wild type (WT) mice (n=20) were tested by feeding 0 or 200 ppm clenbuterol for 21 days. […] For all other variables, GDF-8 KO and WT mice responded similarly to clenbuterol.
Animals: Twelve-week old male (n=10) and female (n=10) GDF-8 (−/−) knockout mice and male (n=10) and female (n=10) GDF-8 (+/+) WT mice were used in the study. GDF-8 knockout mice, which were derived from the 129/SvJ mouse strain, were originally obtained from MetaMorphix Inc. and were bred in-house for the study. Mice were housed singly in suspended wire cages in a room maintained at 22±1 C and with a 12:12 hour light/dark cycle. Mice were provided ground rodent chow (ProLab® RMH 2500; Purina Mills, St. Louis, Mo.) and water ad libitum. Mice were cared for in accordance with the Guide for the Care and Use of Laboratory Animals.
Materials: Clenbuterol (Sigma Chemical Company, St. Louis, Mo., item# C5423), was thoroughly mixed into the ground rodent chow to provide a 200 ppm concentration.
Daily Observations: Food intake was measured daily, and body weight was measured on days 0, 3, 7, 10, 14, 17, 20, and 21 at approximately 1430 h during the treatment period. At 15 weeks of age (day 21), a final body weight measurement was obtained approximately one hour prior to euthanasia, and mice were sacrificed by decapitation following CO2 asphyxiation.
Statistical Analysis: The study was analyzed as a 2×2×2 factorial design (N=5/cell). Analysis of variance (SAS) was used to determine significance of main effects of gender, genotype (WT vs. GDF-8 KO) and clenbuterol (0 vs. 200 ppm) and interactions. Statistically significant differences are defined at the 95% confidence interval.
Feed efficiency was calculated as the total food intake (g)/cumulative weight gain (g). There was a trend (p=0.07) for clenbuterol to improve feed efficiency (g feed/g weight gain) (Table 3).

[2] = 200 ppm in diet, male and female mice
[3] = WT and GDF-8 KO mice, main effect, Mean ± SEM

CC(C)(C)NCC(O)c1cc(Cl)c(N)c(Cl)c1 (stereo not drawn) [Clenbuterol, clenbuterol]
Apoptosis in brain and liver (brain and liver): protect against apoptosis | Brown adipose tissue (BAT) mass compared to control/other treatments (male and female ICR mice): increased BAT mass | Brown adipose tissue (BAT) mass compared to control/other treatments (male and female ICR mice; listed as clenbuterol): greater; also recorded: significantly increased | Rp and Epi/Par fat pad weights compared to control (male and female ICR mice): decreased mass of Rp and Epi/Par fat pads in females only | Rp and Epi/Par fat pad weights compared to control (male and female ICR mice; listed as clenbuterol): reduced | BAT tissue weight, mean (male and female ICR mice; [2]): .124 | Biceps tissue weight, mean (male and female ICR mice; [2]): .145 | Epi/Par tissue weight, mean (male and female ICR mice; [2]): .211 | Heart tissue weight, mean (male and female ICR mice; [2]): .164 | Ing tissue weight, mean (male and female ICR mice; [2]): .150 | Kidney tissue weight, mean (male and female ICR mice; [2]): .582 | Liver tissue weight, mean (male and female ICR mice; [2]): 2.14 | Rp tissue weight, mean (male and female ICR mice; [2]): .035 | Retroperitoneal (Rp) fat pad mass (male and female ICR mice; 200 ppm in diet, mice, control 66±8 mg): 35 ± 7 mg | Epididymal/parametrial (Epi/Par) fat pad mass (male and female ICR mice; 200 ppm in diet, mice, control 319±30 mg): 211 ± 22 mg | Muscle mass / muscle weight, body protein or fat content (male and female ICR mice; diet, ICR mice): no effect | Par weight, mean (male and female ICR mice; females, 200 ppm in diet): .18^b | Epi weight, mean (male and female ICR mice; males, 200 ppm in diet): .24^ab | Effect on final body weight (FBW) [1]: did not significantly affect | Food Intake [1, 3]: 4.78 ± 0.16 g/day | Wt Gain [1, 3]: 0.165 ± 0.01 g/day | Feed Efficiency ([1]; WT and GDF-8 KO mice, main effect, p = 0.07): 34.4 g feed/g wt gain | Effect on food intake, body weight or body composition ([1]; WT or GDF-8 KO mice): did not affect | Final Body Wt ([1]; female and male WT and GDF-8 KO mice, main effect, Mean ± SEM): 29.9 ± 1.2 g | Feed efficiency in females compared to control ([1]; female mice): no effect; also recorded: not in females | Weight gain in females compared to control ([1]; female mice): not in females | Weight gain compared to control ([1]; main effect, p<0.05): increased | Feed efficiency in males compared to control ([1]; male mice): more than doubled; also recorded: significantly improved | More efficient (feed efficiency) compared to males fed control diet ([1]; male mice): more than 250% | Weight gain in males compared to control ([1]; male mice): significantly increased; also recorded: twice as much
